According to US20230265116A1, “DEGRADATION OF (EGFR) BY CONJUGATION OF EGFR INHIBITORS WITH E3 LIGASE LIGAND AND METHODS OF USE” (BEIGENE, LTD., priority 2020, published 2023):

Columns and labels:
[1] = biological target: T1, EGFR L858R/T790M/C797S (BaF3-LTC cells) (Homo sapiens, UniProt P00533, C797S/L858R/T790M); assay: EGFR degradation HTRF assay, BaF3-LTC cells; assay type: cell-based; conditions: BaF3-LTC cells; for DC50: EGFR degradation, IC50 (DC50) from curve fit, read-out: DC50(nM) BaF3-LTC; for Dmax: read-out: Dmax (%) BaF3-LTC
T1 construct: expressed in transfected cells; host or cells: BaF3
T1 sequence (P00533 25-1210 T790M/C797S/L858R): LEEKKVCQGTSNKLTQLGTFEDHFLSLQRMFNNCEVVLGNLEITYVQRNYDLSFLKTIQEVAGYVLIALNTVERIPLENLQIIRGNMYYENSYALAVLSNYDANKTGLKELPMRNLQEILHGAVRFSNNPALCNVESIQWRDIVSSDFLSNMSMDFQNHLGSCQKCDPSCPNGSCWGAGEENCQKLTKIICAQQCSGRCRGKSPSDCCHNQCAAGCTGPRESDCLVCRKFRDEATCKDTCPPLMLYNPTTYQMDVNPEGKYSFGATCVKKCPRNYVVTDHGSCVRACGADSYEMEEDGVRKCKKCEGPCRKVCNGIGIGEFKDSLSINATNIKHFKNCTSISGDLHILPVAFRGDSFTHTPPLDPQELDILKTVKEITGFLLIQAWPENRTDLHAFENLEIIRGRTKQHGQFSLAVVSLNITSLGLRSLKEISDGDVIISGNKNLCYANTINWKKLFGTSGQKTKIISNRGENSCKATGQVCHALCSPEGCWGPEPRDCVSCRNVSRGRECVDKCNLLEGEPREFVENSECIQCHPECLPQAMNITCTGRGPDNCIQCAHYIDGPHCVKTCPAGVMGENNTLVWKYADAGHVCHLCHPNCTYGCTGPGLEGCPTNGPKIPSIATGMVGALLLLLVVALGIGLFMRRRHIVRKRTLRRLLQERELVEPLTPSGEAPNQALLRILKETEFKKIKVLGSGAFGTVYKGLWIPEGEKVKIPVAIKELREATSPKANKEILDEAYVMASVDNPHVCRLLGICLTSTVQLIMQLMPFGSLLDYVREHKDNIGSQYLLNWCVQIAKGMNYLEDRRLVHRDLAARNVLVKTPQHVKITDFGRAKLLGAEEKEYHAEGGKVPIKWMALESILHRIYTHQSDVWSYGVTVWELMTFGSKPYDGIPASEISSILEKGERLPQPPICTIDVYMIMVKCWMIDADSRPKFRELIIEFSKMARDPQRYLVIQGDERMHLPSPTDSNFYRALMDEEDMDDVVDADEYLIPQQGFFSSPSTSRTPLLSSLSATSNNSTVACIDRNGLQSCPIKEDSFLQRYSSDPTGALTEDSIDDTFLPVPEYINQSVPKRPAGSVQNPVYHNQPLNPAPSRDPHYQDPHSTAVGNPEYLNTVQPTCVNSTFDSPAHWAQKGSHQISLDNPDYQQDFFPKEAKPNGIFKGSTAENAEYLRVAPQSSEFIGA
Method in brief: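 Cells treated 16 h at 37 °C, 5% CO2 in medium with 0.2% DMSO; top final concentration 10 uM, 5-fold dilution, 8 doses. Lysates read by HTRF (665/620 nm); degradation % versus DMSO high control, DC50 from four-parameter fit, Dmax as maximal degradation.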

[2] = tested on: EGFR Del19/T790M/C797S (H1975-clone #28); assay: EGFR degradation HTRF assay, H1975-clone #28 DTC cells; assay type: cell-based; conditions: H1975 # 28 DTC cells; for DC50: EGFR degradation, IC50 (DC50) from curve fit, read-out: DC50(nM) H1975 # 28 DTC; for Dmax (%) H1975 # 28 DTC: maximum percentage of inhibition (degradation)
Method in brief: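 Compounds (top 10 uM, 5-fold, 8 points, 0.2% DMSO) incubated 16 h at 37 °C on homozygous clones: #23 Del19/C797S, #28 Del19/T790M/C797S, exogenous EGFR only in H1975. HTRF on lysates quantified remaining EGFR relative to DMSO; four-parameter fit gave DC50 and Dmax.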

[3] = maximum percentage of inhibition (degradation)

DC50 [1] [nM]	DC50 [2] [nM]	Dmax [1, 3] [%]	Dmax (%) BaF3-LTC [1, 3] [%]	Structure (SMILES)	Dmax (%) H1975 # 28 DTC [2] [%]
42.5	4.55	–	–	CCOc1cc(N2CCC(N3CCN(CCc4c(F)cc(F)c5c4oc(=O)n5C4CCC(=O)NC4=O)CC3)CC2)c(CC)cc1Nc1ncc(Br)c(Nc2ccc3nc(CC)ccc3c2P(C)(C)=O)n1 (stereo not drawn) [Example 731, 3-(7-(2-(4-(1-(4-((5-bromo-4-((5-(dimethylphosphoryl)-2-ethylquinolin-6-yl)amino)pyrimidin-2-yl)amino)-5-ethoxy-2-ethylphenyl)piperidin-4-yl)piperazin-1-yl)ethyl)-4,6-difluoro-2-oxobenzo[d]oxazol-3(2H)-yl)piperidine-2,6-dione]	93.44
5.79	0.677	93.3	–	CCc1cc(Nc2ncc(Br)c(Nc3ccc4c(=O)n(CC)ncc4c3P(C)(C)=O)n2)c(OC)cc1N1CCC(N2CCN(C(=O)[C@@H]3CCN(c4cc(F)c([C@H]5CCC(=O)NC5=O)c(F)c4)C3)CC2)CC1 [Example 673, (R)-3-(4-((R)-3-(4-(1-(4-((5-bromo-4-((5-(dimethylphosphoryl)-2-ethyl-1-oxo-1,2-dihydrophthalazin-6-yl)amino)pyrimidin-2-yl)amino)-2-ethyl-5-methoxyphenyl)piperidin-4-yl)piperazine-1-carbonyl)pyrrolidin-1-yl)-2,6-difluorophenyl)piperidine-2,6-dione]	85.2
83.4	5.69	–	86.27	CCOc1cc(N2CCC(N3CCN(C[C@H]4CCN(c5cccc6c5oc(=O)n6C5CCC(=O)NC5=O)C4)CC3)CC2)c(CC)cc1Nc1ncc(Br)c(Nc2ccc3c(=O)n(CC)ncc3c2P(C)(C)=O)n1 (stereo partly drawn) [Example 611, 3-(7-((R)-3-((4-(1-(4-((5-bromo-4-((5-(dimethylphosphoryl)-2-ethyl-1-oxo-1,2-dihydrophthalazin-6-yl)amino)pyrimidin-2-yl)amino)-5-ethoxy-2-ethylphenyl)piperidin-4-yl)piperazin-1-yl)methyl)pyrrolidin-1-yl)-2-oxobenzo[d]oxazol-3(2H)-yl)piperidine-2,6-dione]	70.37
6.9	1.36	88.5	–	CCOc1cc(N2CCC(N3CCN(CC4CCN(c5cccc6c5oc(=O)n6C5CCC(=O)NC5=O)CC4)CC3)CC2)c(CC)cc1Nc1ncc(Br)c(Nc2ccc3nc(CC)ccc3c2P(C)(C)=O)n1 (stereo not drawn) [Example 581, 3-(7-(4-((4-(1-(4-((5-bromo-4-((5-(dimethylphosphoryl)-2-ethylquinolin-6-yl)amino)pyrimidin-2-yl)amino)-5-ethoxy-2-ethylphenyl)piperidin-4-yl)piperazin-1-yl)methyl)piperidin-1-yl)-2-oxobenzo[d]oxazol-3(2H)-yl)piperidine-2,6-dione]	72.5
4.65	1.37	96	–	CCc1cc(Nc2ncc(Br)c(Nc3ccc4nc(C)ccc4c3P(C)(C)=O)n2)c(OC)cc1N1CCC(N2CCN(C(=O)[C@H]3CC[C@@H](Oc4cc(F)c(C5CCC(=O)NC5=O)c(F)c4)CC3)CC2)CC1 (stereo partly drawn) [Example 681, 3-(4-(((1s,4s)-4-(4-(1-(4-((5-bromo-4-((5-(dimethylphosphoryl)-2-methylquinolin-6-yl)amino)pyrimidin-2-yl)amino)-2-ethyl-5-methoxyphenyl)piperidin-4-yl)piperazine-1-carbonyl)cyclohexyl)oxy)-2,6-difluorophenyl)piperidine-2,6-dione]	77.05
17.9	3.09	87.2	–	CCOc1cc(N2CCC(N3CCN(CCC4CCN(c5cc(F)c6c(c5)n(CC)c(=O)n6C5CCC(=O)NC5=O)CC4)CC3)CC2)c(CC)cc1Nc1ncc(Br)c(Nc2ccc3c(=O)n(CC)ncc3c2P(C)(C)=O)n1 (stereo not drawn) [Example 640, 3-(5-(4-(2-(4-(1-(4-((5-bromo-4-((5-(dimethylphosphoryl)-2-ethyl-1-oxo-1,2-dihydrophthalazin-6-yl)amino)pyrimidin-2-yl)amino)-5-ethoxy-2-ethylphenyl)piperidin-4-yl)piperazin-1-yl)ethyl)piperidin-1-yl)-3-ethyl-7-fluoro-2-oxo-2,3-dihydro-1H-benzo[d]imidazol-1-yl)piperidine-2,6-dione]	85.38
13.2	1.26	82.6	–	CCOc1cc(N2CCC(N3CCN(CCc4c(C)c(F)cc5c4oc(=O)n5C4CCC(=O)NC4=O)CC3)CC2)c(CC)cc1Nc1ncc(Br)c(Nc2cc(F)c3nc(CC)ccc3c2P(C)(C)=O)n1 (stereo not drawn) [Example 593, 3-(7-(2-(4-(1-(4-((5-bromo-4-((5-(dimethylphosphoryl)-2-ethyl-8-fluoroquinolin-6-yl)amino)pyrimidin-2-yl)amino)-5-ethoxy-2-ethylphenyl)piperidin-4-yl)piperazin-1-yl)ethyl)-5-fluoro-6-methyl-2-oxobenzo[d]oxazol-3(2H)-yl)piperidine-2,6-dione]	76.9
18.8	1.64	88.4	–	CCOc1cc(N2CCC(N3CCN(CCCc4cc(OC)cc5c4oc(=O)n5C4CCC(=O)NC4=O)CC3)CC2)c(CC)cc1Nc1ncc(Br)c(Nc2ccc3c(=O)n(CC)ncc3c2P(C)(C)=O)n1 (stereo not drawn) [Example 598, 3-(7-(3-(4-(1-(4-((5-bromo-4-((5-(dimethylphosphoryl)-2-ethyl-1-oxo-1,2-dihydrophthalazin-6-yl)amino)pyrimidin-2-yl)amino)-5-ethoxy-2-ethylphenyl)piperidin-4-yl)piperazin-1-yl)propyl)-5-methoxy-2-oxobenzo[d]oxazol-3(2H)-yl)piperidine-2,6-dione]	81.26
6.66	0.689	90.6	–	CCc1cc(Nc2ncc(Br)c(Nc3ccc4nc(COC)ccc4c3P(C)(C)=O)n2)c(OC)cc1N1CCC(N2CCN(CCc3cc(F)c(C4CCC(=O)NC4=O)c(F)c3)CC2)CC1 (stereo not drawn) [Example 690, 3-(4-(2-(4-(1-(4-((5-bromo-4-((5-(dimethylphosphoryl)-2-(methoxymethyl)quinolin-6-yl)amino)pyrimidin-2-yl)amino)-2-ethyl-5-methoxyphenyl)piperidin-4-yl)piperazin-1-yl)ethyl)-2,6-difluorophenyl)piperidine-2,6-dione]	77.81
17.1	1.31	92	–	CCOc1cc(N2CCC(N3CCN(C[C@@H]4CCN(c5cccc6c5oc(=O)n6C5CCC(=O)NC5=O)C4)CC3)CC2)c(CC)cc1Nc1ncc(Br)c(Nc2ccc3c(=O)n(CC)ncc3c2P(C)(C)=O)n1 (stereo partly drawn) [Example 623, 3-(7-((S)-3-((4-(1-(4-((5-bromo-4-((5-(dimethylphosphoryl)-2-ethyl-1-oxo-1,2-dihydrophthalazin-6-yl)amino)pyrimidin-2-yl)amino)-5-ethoxy-2-ethylphenyl)piperidin-4-yl)piperazin-1-yl)methyl)pyrrolidin-1-yl)-2-oxobenzo[d]oxazol-3(2H)-yl)piperidine-2,6-dione]	75.76
